The text below walks through data of patent US12285407B2, “Bis-indolylmethane derivatives and uses thereof” (The University of The West Indies, priority 2018, dated 2025).

Data set [1] deals with Streptococcus pyogenes ATCC 19615. As to the kind of experiment: Broth microdilution MIC of SP-BIMs. The format is cell-based. Conditions: ATCC19615, SP-BIM alone, read-out: MIC Streptococcus pyogenes ATCC 19615. For orientation: In broth dilution the organism is exposed to a series of concentrations in liquid medium.
Data set [2] relates to Enterococcus faecium ATCC 19434. As to the kind of experiment: Broth microdilution MIC of SP-BIMs. It is filed as cell-based. Conditions: ATCC19434, SP-BIM alone, read-out: MIC Enterococcus faecium ATCC 19434.
The subject of data set [3] is Corynebacterium diphtheriae ATCC 27010. In words: Broth microdilution MIC of SP-BIMs. The format is cell-based. Conditions: ATCC27010, SP-BIM alone, read-out: MIC Corynebacterium diphtheriae ATCC 27010.
The subject of data set [4] is Escherichia coli ATCC 35218. In words: Broth microdilution MIC of SP-BIMs. It is filed as cell-based. Conditions: ATCC35218, SP-BIM alone, read-out: MIC Escherichia coli ATCC 35218.
Data set [5] has as its system Candida albicans ATCC 22972. In words: Broth microdilution MIC of SP-BIMs. The format is cell-based. The conditions noted are these: ATCC22972, SP-BIM alone, read-out: MIC Candida albicans ATCC 22972.
For data set [6], the system named is Gram-negative bacteria. As to the kind of experiment: Adjuvant broth microdilution. Conditions: SP-BIM at 50 μg mL^−1. It is filed as cell-based. The procedure: To each well, the SP-BIM to be tested was added to a final concentration of 50 μg mL^−1. […] SP-BIMs were assessed as potential adjuvants based on their ability to reduce the MIC of the antibiotic against respective pathogen.

Data set [7] has as its system α-hemolysin production in Staphylococcus aureus. It is filed as cell-based.
The nature of data set [8]: in vitro. The conditions noted are these: human.
The test system of data set [9] is sarA, agrA, RNA III, mecA, blaZ and fnbA genes. As to the kind of experiment: Real time gene expression analysis in MRSA cells. The conditions noted are these: MRSA cells exposed to SP-BIM 13 only, or SP-BIM 13 in combination with ampicillin; 5 and 10 μg mL^−1.

In general, MIC refers to the lowest concentration that inhibits growth of the organism. Take `Oc1cc(C(c2c[nH]c3ccccc23)c2c[nH]c3ccccc23)cc(O)c1O` [SP-BIM 13, 5-(di(1H-indol-3-yl)methyl)benzene-1,2,3-triol]: the MIC in data set [1] is 125 µg/mL; in [2], 125 µg/mL; in data set [3], over 250 µg/mL; in data set [4], over 250 µg/mL; in data set [5] it was 250 µg/mL. The “potentiating activity for Gram-negative bacteria” value in [6] was “No potentiating activity was observed”. For the same compound, in data set [7], the “lysis of RBCs” value is reported as “less than 50%”. The CC50 in data set [8] was 750 µM. Also, in data set [9], the “expression of both the downstream and regulator genes” value was “significantly reduced”.
